Reference: patent US20190119284A1, “ErbB Inhibitors and Uses Thereof” (The Regents of the University of California, priority 2016, published 2019)

Test: Mouse Liver Microsome stability assay
Format: in vitro ADME
Conditions: mouse liver microsomes

Row | WuXi Microsomal stability (Mouse Extraction Ratio) | Structure (SMILES)
1 | 0.6 | FC(F)Oc1ccc(-c2ccccc2)cc1Nc1ncnc2[nH]nc(-c3cc[nH]n3)c12 [compound 8179]
2 | 0.9 | COc1ccc(-c2cnccn2)cc1Nc1ncnc2[nH]nc(-c3cc[nH]n3)c12 [compound 8184]
3 | 0.8 | COc1ccc(-c2ncccn2)cc1Nc1ncnc2[nH]nc(-c3cc[nH]n3)c12 [compound 8185]
4 | 0.7 | COc1ccc(-c2ccccc2)cc1Nc1ncnc2[nH]nc(-c3n[nH]cc3C)c12 [compound 8186]
